Experimental data from patent publication USRE47193E1, “Selectively substituted quinoline compounds” (EISAI R&D MANAGEMENT CO., LTD., priority 2013, dated 2019).

Tested on: NZB/W lupus disease model
Assay: NZBxNZW (NZB/W) lupus disease model
Assay type: in vivo, mouse
Conditions: for mortality: 33, 100 or 300 mg/kg QD PO, 21 weeks of treatment; for impact on anti-dsDNA titers: after 17 weeks of dosing, at 46 weeks of age
Experimental: FIG. 2A through FIG. 2C show results of testing ER-899742 in the NZBxNZW strain (abbreviated hereafter as NZBWF1/J or NZB/W) lupus disease model. Figure Legend: Female NZBWF1/J mice were received at 5 weeks of age, baseline bleeds were performed, and mice were monitored for disease progression by following anti-dsDNA titers. At 27 weeks of age, mice were randomized into groups with equivalent median anti-dsDNA titers and treated at 29 weeks of age with Vehicle (Veh; 0.5% methyl-cellulose) alone or 33, 100, or 300 mg/kg once-a-day orally (QD PO). At 46 weeks of age after 17 weeks of treatment mice were bled and tested for anti-dsDNA titers. All mice were sacrificed at 50 weeks of age (21 weeks of compound treatment). (FIG. 2A) Just prior to termination at 50 weeks of age (following 21 weeks of treatment), urine was collected from individual mice, and the Urinary Albumin Creatinine Ratio (UACR, proteinuria) was determined for each animal as an indirect measure of kidney function. (FIG. 2B) Timecourse of mortality observed in this study for the highest and lowest dose groups. […] (FIG. 2C) Impact of treatment on anti-dsDNA titers after 17 weeks of dosing, at 46 weeks of age.
FIG. 4A through FIG. 4C show results of testing ER-899464 in the NZB/W disease model in the same experiment as FIG. 2A. Figure Legend: (FIG. 4A) Just prior to termination at 50 weeks of age (following 21 weeks of treatment), urine was collected from individual mice, and the Urinary Albumin Creatinine Ratio (UACR, proteinuria) was determined for each animal as an indirect measure of kidney function. (FIG. 4B) Summary of mortality observed in this study for the highest and lowest dose groups. […] ([…]) Impact of treatment on anti-dsDNA titers after 17 weeks of dosing, at 46 weeks of age.
Mouse Lupus Disease Models.
Mouse lupus disease model strains. Female NZBWF1/J mice were purchased from Jackson Labs (Bar Harbor, Me.), both of which manifest with spontaneous lupus disease. Female DBA/1 mice were purchased from Harlan Laboratories (Indianapolis, Ind.) and at the indicated ages given an intraperitoneal injection of 0.5 ml pristane (2,6,10,14-Tetramethylpentadecane; Sigma, St. Louis, Mo.) to chemically induce lupus disease or of 0.5 ml PBS to generate age-matched, non-diseased control mice.
Female NZBWF1/J mice were received at 5 weeks of age, baseline bleeds were performed, and mice were monitored for disease progression by following anti-dsDNA titers. At 27 weeks of age, mice were randomized into groups with equivalent median anti-dsDNA titers and treated at 29 weeks of age with Vehicle (Veh; 0.5% methyl-cellulose) alone or 33, 100, or 300 mg/kg once-a-day orally (QD PO). At 46 weeks of age after 17 weeks of treatment, mice were bled and tested for anti-dsDNA titers. All mice were sacrificed at 50 weeks of age (21 weeks of compound treatment).
At the end of the experiment kidneys were collected from the animals tested in FIG. 2A through 2C, fixed in 10% formalin for 24 hours, embedded in paraffin, and H&E stained sections were generated for histopathology assessment in a blinded fashion (Grade 0/1+: WNL to minimal; Grade 2: Mild; Grade 3: Moderate to Marked; Grade 4: Severe).
Assessment of auto-antibody titers by ELISA. Anti-dsDNA, -Sm/nRNP, -RiboP, and -Histone titers were evaluated by standard ELISA approach. Briefly, 96-well EIA/RIA ELISA plates (Corning) were coated with 100 ul of diluted antigen in PBS for 90 minutes at room temperature as follows (final concentrations indicated): 10 U/ml Sm/nRNP complex (Immunovision), 10 ug/ml calf thymus dsDNA (Sigma), 5 U/ml RiboP (Immunovision), and 5 ug/ml Histone (Immunovision). Plates were washed with PBS/0.05% Tween20 (washing buffer) and blocked overnight with PBS/1% BSA (blocking buffer) at 4° C. […]

[1] = several doses between 33 and 300 mg/kg

| Compound | mortality | impact on anti-dsDNA titers | proteinuria (UACR) [1] | survival [1] | % combined incidence of Grade 3 and 4 (33 mpk) | Number of mice with GN Score 0 (33 mpk QD PO, kidney histopathology, Grade 0/1+: WNL to minimal) | Number of mice with GN Score 2+ (33 mpk, Grade 2: Mild) | Number of mice with GN Score 3+ (33 mpk, Grade 3: Moderate to Marked) | Number of mice with GN Score 4+ (33 mpk, Grade 4: Severe) | % combined incidence of Grade 3 and 4 (100 mpk) | Number of mice with GN Score 0 (100 mpk) | Number of mice with GN Score 2+ (100 mpk) | Number of mice with GN Score 3+ (100 mpk) | Number of mice with GN Score 4+ (100 mpk) | % combined incidence of Grade 3 and 4 (300 mpk) | Number of mice with GN Score 0 (300 mpk) | Number of mice with GN Score 2+ (300 mpk) | Number of mice with GN Score 3+ (300 mpk) | Number of mice with GN Score 4+ (300 mpk) | histological signs of glomerulonephritis [1] |
| --- | --- | --- | --- | --- | --- | --- | --- | --- | --- | --- | --- | --- | --- | --- | --- | --- | --- | --- | --- | --- |
| C[C@@H]1CN(c2ccc(C#N)c3ncccc23)C[C@H](C(=O)NC2CCN(C)CC2)O1 [ER-899464, (2R,6R)-4-(8-cyanoquinolin-5-yl)-6-methyl-N-(1-methylpiperidin-4-yl)morpholine-2-carboxamide] | No mortality was seen in the middle dose group | No statistically significant effect was observed | significantly reduced proteinuria | significant survival benefit | – | – | – | – | – | – | – | – | – | – | – | – | – | – | – | – |
| C[C@@H]1CN(c2ccc(C#N)c3ncccc23)C[C@H](C(=O)N[C@H]2CNC[C@H]2F)O1.Cl [ER-899742, (2R,6R)-4-(8-cyanoquinolin-5-yl)-N-[(3S,4R)-4-fluoropyrrolidin-3-yl]-6-methylmorpholine-2-carboxamide hydrochloride] | No mortality was seen with compound treatment | No statistically significant effect was observed | significantly reduced proteinuria | pronounced survival benefit | 11% | 11 | 5 | 1 | 1 | 6% | 15 | 1 | 1 | 0 | 11% | 9 | 7 | 0 | 2 | significantly reduced |
